Literature values as cited in EP2637636B1, “LEAVE-ON NONSOLID SKIN CONDITIONING COMPOSITIONS CONTAINING 12-HYDROXYSTEARIC ACID” (Unilever PLC, priority 2010, dated 2012).

Details: surfactants used in the Examples
In the case of Hexadecyl n-methyl glucamide, the HLB is given as > 7.
For `CCCCCCCCCCCCNC(=O)[C@H](O)[C@@H](O)[C@H](O[C@@H]1O[C@H](CO)[C@H](O)[C@H](O)[C@H]1O)[C@H](O)CO` [C12 lactobionamide], the HLB is given as > 7.
For Sorbitan Monostearate [Span 60], the HLB is given as 4.7.
For Glyceryl hydroxystearate, the HLB is listed as “about 5”.
